Five compounds from US6340676B2, “4-aryl-1-oxa-9-thia-cyclopenta (b) fluorenes” (American Home Products Corporation, priority 1998, dated 2002) can be followed below.

One data set relates to diabetic (ob/ob) mice. The data set can be described thus: Blood glucose lowering activity in diabetic (ob/ob) mice. Type of data set: in vivo. Particulars: for % Change Glucose from Vehicle: plasma glucose. The text has this:
The procedures used and results obtained are briefly described below.
The non-insulin dependent diabetic (NIDDM) syndrome can be typically characterizes by obesity, hyperglycemia, abnormal insulin secretion, hyperinsulinemia and insulin resistance.
In each test procedure, mice [Male or female ob/ob (C57 B1/6J) and their lean litermates (ob/+ or +/+, Jackson Laboratories) ages 2 to 5 months (10 to 65 g)] of a similar age were randomized according to body weight into 4 groups of 10 mice. The mice were housed 5 per cage and are maintained on normal rodent chow with water ad libitum. Mice received test compound daily by gavage (suspended in 0.5 ml of 0.5% methyl cellulose); dissolved in the drinking water; or admixed in the diet. The dose of compounds given ranges from 2.5 to 200 mg/kg body weight/day. The dose is calculated based on the fed weekly body weight and is expressed as active moiety. The positive control, ciglitazone ([…], see Chang, A., Wyse, B., Gilchrist, B., Peterson, T. and Diani, A. Diabetes 32: 830-838, 1983.) was given at a dose of 100 mg/kg/day, which produces a significant lowering in plasma glucose. Control mice received vehicle only.
On the morning of Day 4, 7 or 14 two drops of blood (approximately 50 ul) were collected into sodium fluoride containing tubes either from the tail vein or after decapitation. For those studies in which the compound was administered daily by gavage the blood samples were collected two hours after compound administration. The plasma was isolated by centrifugation and the concentration of glucose is measured enzymatically on an Abbott V. P. Analyzer.
For each mouse, the percentage change in plasma glucose on Day 4, 7 or 14 is calculated relative to the mean plasma glucose of the vehicle treated mice. Analysis of variance followed by Dunett's Comparison Test (one-tailed) are used to estimate the significant difference between the plasma glucose values from the control group and the individual compound treated groups (CMS SAS Release 5.18).

The target in a further data set is T1, Human recombinant PTP1B (Homo sapiens, UniProt P18031).
T1 construct: made in house
T1 sequence (P18031 1-435): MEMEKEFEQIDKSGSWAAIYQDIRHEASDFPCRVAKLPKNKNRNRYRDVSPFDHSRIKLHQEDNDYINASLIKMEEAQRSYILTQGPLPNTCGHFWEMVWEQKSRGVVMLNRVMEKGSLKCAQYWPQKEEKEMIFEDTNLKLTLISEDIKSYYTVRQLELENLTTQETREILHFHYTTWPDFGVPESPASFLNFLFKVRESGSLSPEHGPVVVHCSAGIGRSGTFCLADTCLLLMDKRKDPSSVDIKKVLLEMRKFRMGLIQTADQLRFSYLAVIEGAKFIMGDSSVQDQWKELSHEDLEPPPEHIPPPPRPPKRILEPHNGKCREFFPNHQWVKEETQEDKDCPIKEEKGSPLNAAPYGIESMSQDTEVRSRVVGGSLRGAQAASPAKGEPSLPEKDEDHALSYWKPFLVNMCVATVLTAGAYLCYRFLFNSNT
The class given is biochemical.

Data set [1] concerns rat hepatic microsomal PTPases. Particulars: PTPase activity; compounds at 50 μM.

Consider `CC1(COc2ccc(CC3SC(=O)NC3=O)cc2)CCCCC1` (stereo not shown) [Ciglitazone, 5-(4-(1-methylcyclohexylmethoxy)benzyl)-2,4-dione, reference compound], for which, in the data set on diabetic (ob/ob) mice (dose 100 mg/Kg), the “% Change Insulin from Vehicle” value is given as −39% and the “% Change Glucose from Vehicle” value is −43%.
In general, melting point refers to the temperature of the solid-liquid transition. The compound `Cc1oc2cc3sc4ccccc4c3c(-c3ccc(O)cc3)c2c1C` [Example 5, 4-(2,3-Dimethyl-1-oxa-9-thia-cyclopenta[b]fluoren-4-yl)-phenol] came in with a melting point of 174 to 175 °C.
By IC50 is commonly meant the point on the concentration scale where inhibition reaches its midpoint. Consider `Cc1oc2cc3sc4ccccc4c3c(-c3cc(I)c(O[C@H](C)C(=O)O)c(I)c3)c2c1C` [Example 8, (R)-2-[4-(2,3-Dimethyl-1-oxa-9-thia-cyclopenta[b]fluoren-4-yl)-2,6-diiodo-phenoxy]-propionic acid], for which the IC50 at Human recombinant PTP1B was 284 nM. Also, the “% Change from Control” value in data set [1] was −58.84%.
For the compound `Cc1oc2cc3sc4ccccc4c3c(-c3cc(I)c(O[C@H](Cc4ccccc4)C(=O)O)c(I)c3)c2c1C` [Example 9, (R)-2-[4-(2,3-Dimethyl-1-oxa-9-thia-cyclopenta[b]fluoren-4-yl)-2,6-diiodo-phenoxy]-3-phenyl-propionic acid], the “% Change Insulin from Vehicle” value in the data set with diabetic (ob/ob) mice (dose 10 mg/Kg) is listed as −43.43%. The “% Change Glucose from Vehicle” value in the data set on diabetic (ob/ob) mice (dose 10 mg/Kg, footnote (a): no significant activity (p < 0.05) at this dose) is on record as 8.13%. For the same compound, on Human recombinant PTP1B, the IC50 stood at 74 nM. Also, in data set [1], the “% Change from Control” value is recorded as −72.70%.
On to “Ammonium molybdate tetrahydrate [reference compound]”, for which the IC50 at Human recombinant PTP1B worked out at 8700 nM.
